Series [1] is described as follows: HTChem stab assay (chemical stability in buffer pH2, pH4 and pH7 vs DMSO reference). The following applies: 72 h, 50 µM; for Chemical stability data, Buffer pH2: pH 2; for Chemical stability data, Buffer pH4: pH 4; for Chemical stability data, Buffer pH7: pH 7. In kind it is physicochemical. In outline: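 Compound from 10 mM DMSO stock shaken 72 h at room temperature in Buffer/DMSO (2:1) at pH2 (0.1N HCl), pH4 or pH7 (phosphate), alongside a DMSO control. Samples analysed by LC/UV/MS against the DMSO reference; degradant peaks identified by MS and sample purity reported.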

Series [2] deals with Mycobacterium tuberculosis strain H37Rv. The experiment in a line: Test 2: MIC determination against M. tuberculosis, resazurin fluorescence. In kind it is cell-based. The following applies: Mycobacterium tuberculosis, H37RV, Test 2, M. tuberculosis H37Rv; for MIC90: read-out: Bacterial activity MIC90; for IC50: read-out: Bacterial activity pMIC50 (converted). On the technique in general: The colour change of resazurin is a common sign of viable cells or microbes.

The nature of series [3]: Metabolic stability in liver microsomes (intrinsic clearance). In kind it is in vitro ADME. The following applies: microsomes. The method in brief:
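Compound (typically 1 μM) incubated at 37° C with liver microsomes (0.5 mg/ml protein) of selected species, 1 mM NADPH, 1 mM MgCl2, 0.1 M phosphate pH 7.4, sampled 0–60 min. Parent remaining measured by LC-MS/MS; t1/2 from log-linear slope, then Clint in μl/min/mg protein.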
For orientation: Liver microsomes are a subcellular fraction often used to study metabolism.

Series [4] deals with Salmonella typhimurium Ames II Mixed Strains (TA7001-TA7006) and TA98. The series can be described thus: Genotoxicity assay (AmesIIb mutagenicity test). Note: key: an AmesIIb score of 1 shows no genotoxicity signals. In kind it is cell-based. The following applies: Salmonella typhimurium. The method in brief:
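Ames II fluctuation-type reverse mutation test using Ames II Mixed Strains (equimolar TA7001–TA7006, six base-pair substitutions) plus TA98 (frameshift). Run with and without mammalian metabolic activation across varying compound concentrations; His+ revertants selected on histidine-free medium.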

The test system of series [5] is M. tuberculosis H37Rv inside macrophages. The following applies: strain M. tuberculosis H37Rv; cited from earlier work.
A further series has as its system M. tuberculosis. The following applies: cited from earlier work.
[6] abbreviates: human, pH 7.4, Metabolic Stability Half life (human, min.).
Where [7] appears, read: human, pH 7.4, human liver microsomes, read-out: Metabolic Stability (liver microsome intrinsic clearance) Clearance (human, μl/min./mg protein).
Setting [8] is: mouse, pH 7.4, Metabolic Stability Half life (mouse, min.).
The mark [9] stands for this setting: mouse, pH 7.4, mouse liver microsomes, read-out: Metabolic Stability (liver microsome intrinsic clearance) Clearance (mouse, μl/min./mg protein).

The values that follow come from US20250034171A1, “IMIDAZOPYRIDINE AMIDES AND RELATED COMPOUNDS FOR USE IN THE TREATMENT OF BACTERIAL INFECTIONS” (priority 2021, published 2025).

Converted amounts (≈) assume the structure as drawn. Like-named read-outs stand apart in the source and are kept apart here. A value given as a limit tells only on which side of the number the result lay.

The term MIC90 denotes an inhibitory concentration at the 90% level, which refers to growth in some studies and to a panel of isolates in others. By half-life is commonly meant the time needed for the level to fall by half in the phase considered.

Consider `CCc1nc2ncc(C)cn2c1C(=O)NCc1ccc(-c2cc3n(n2)CCC(C(F)(F)F)C3)cc1` (stereo not shown) [Compound 20ab], for which, in series [1], the “Chemical stability data, Vehicle DMSO” value was found to be 100%; the “Chemical stability data, Buffer pH2” value is recorded as 100%; the “Chemical stability data, Buffer pH4” value is given as 100%; the “Chemical stability data, Buffer pH7” value came out at 100%. In addition, in series [2], the MIC90 was found to be 0.003 µM (≈ 0.00145 µg/mL) and the IC50 was 931 pM. The compound also registered a half-life at 1 µM in series [3] (setting [6]) of 0.637 h. Besides, in series [3] (setting [7]), the microsomal CLint at 1 µM is 36.3 µL/min/mg. In series [3] (setting [8]), this compound showed a half-life at 1 µM of 1.08 h. The microsomal CLint at 1 µM in series [3] (setting [9]) stood at 21.3 µL/min/mg. In addition, the “GeneTox AmesIIb Score” value in series [4] is on record as 1.
As for `CCc1nc2ncc(C)cn2c1C(=O)NCc1ccc(-c2nc3n(n2)CCC(C(F)(F)F)C3)c(F)c1` (stereo not shown) [Compound 22ab], in series [1], the “Chemical stability data, Vehicle DMSO” value was 98%; the “Chemical stability data, Buffer pH2” value is given as 97%; the “Chemical stability data, Buffer pH4” value was found to be 97%; the “Chemical stability data, Buffer pH7” value was 98%. In series [2], the MIC90 came to 0.007 µM (≈ 0.00351 µg/mL) and the IC50 is 2290 pM. In addition, the half-life at 1 µM in series [3] (setting [8]) stood at 1.78 h. Also, the microsomal CLint at 1 µM in series [3] (setting [9]) worked out at 13 µL/min/mg. Besides, the “GeneTox AmesIIb Score” value in series [4] is listed as 1.
On to `CCc1nc2ncc(C)cn2c1C(=O)NCc1ccc(-c2nc3n(n2)CCC(C(F)(F)F)C3)c(C)c1` (stereo not shown) [Compound 23ab], for which, in series [1], the “Chemical stability data, Vehicle DMSO” value worked out at 100%; the “Chemical stability data, Buffer pH2” value stood at 100%; the “Chemical stability data, Buffer pH4” value stood at 100%; the “Chemical stability data, Buffer pH7” value is listed as 100%. In series [2], the MIC90 came out at 0.022 µM (≈ 0.0109 µg/mL) and the IC50 was 8300 pM. Further, the half-life at 1 µM in series [3] (setting [8]) is 1.58 h. In series [3] (setting [9]), the microsomal CLint at 1 µM was determined as 14.6 µL/min/mg. In addition, the “GeneTox AmesIIb Score” value in series [4] is 1.
In the case of `CCc1nc2ncc(C)cn2c1C(=O)NCc1ccc(-c2nc3n(n2)CC(C(F)(F)F)CC3)cc1` (stereo not shown) [Compound 24ab], in series [1], the “Chemical stability data, Vehicle DMSO” value was 100%; the “Chemical stability data, Buffer pH2” value was found to be 100%; the “Chemical stability data, Buffer pH4” value came to 100%; the “Chemical stability data, Buffer pH7” value amounted to 100%. For the same compound, in series [2], the MIC90 was 0.008 µM (≈ 0.00387 µg/mL) and the IC50 is 3380 pM. The compound also had a half-life at 1 µM in series [3] (setting [8]) of more than 3 h. Also, the microsomal CLint at 1 µM in series [3] (setting [9]) was less than 7.7 µL/min/mg. For the same compound, the “GeneTox AmesIIb Score” value in series [4] is given as 1.
Regarding `CCc1nc2ncc(C)cn2c1C(=O)NCc1ccc(-c2nc3n(n2)CCC(C(F)F)C3)cc1` (stereo not shown) [Compound 25ab], in series [1], the “Chemical stability data, Vehicle DMSO” value is 100%; the “Chemical stability data, Buffer pH2” value stood at 100%; the “Chemical stability data, Buffer pH4” value was determined as 100%; the “Chemical stability data, Buffer pH7” value was 100%. In series [2], the MIC90 is 0.014 µM (≈ 0.00652 µg/mL) and the IC50 is 7460 pM. Also, in series [3] (setting [8]), the half-life at 1 µM is 2.32 h. Besides, in series [3] (setting [9]), the microsomal CLint at 1 µM turned out to be 9.97 µL/min/mg. The “GeneTox AmesIIb Score” value in series [4] turned out to be 1.
Take `CCc1nc2ncc(C)cn2c1C(=O)NCc1ccc(-c2nc3n(n2)CCC(OC)C3)cc1` (stereo not shown) [Compound 26ab]: in series [1], the “Chemical stability data, Vehicle DMSO” value worked out at 95%; the “Chemical stability data, Buffer pH2” value is reported as 95%; the “Chemical stability data, Buffer pH4” value worked out at 95%; the “Chemical stability data, Buffer pH7” value turned out to be 95%. For the same compound, in series [2], the MIC90 was 0.143 µM (≈ 0.0637 µg/mL) and the IC50 is 49400 pM. The half-life at 1 µM in series [3] (setting [8]) is 2.12 h. In addition, the microsomal CLint at 1 µM in series [3] (setting [9]) stood at 10.9 µL/min/mg. The “GeneTox AmesIIb Score” value in series [4] stood at 1.
For `CCc1nc2ncc(C)cn2c1C(=O)NCc1ccc(-c2nc3n(n2)CCC(O)C3)cc1` (stereo not shown) [Compound 29ab], in series [1], the “Chemical stability data, Vehicle DMSO” value was 100%; the “Chemical stability data, Buffer pH2” value is reported as 100%; the “Chemical stability data, Buffer pH4” value is listed as 100%; the “Chemical stability data, Buffer pH7” value was 100%. In addition, in series [2], the MIC90 was found to be 3.19 µM (≈ 1.38 µg/mL) and the IC50 was more than 500000 pM. Also, in series [3] (setting [6]), the half-life at 1 µM is more than 3 h. The microsomal CLint at 1 µM in series [3] (setting [7]) is less than 7.7 µL/min/mg. Also, the half-life at 1 µM in series [3] (setting [8]) is more than 3 h. Also, the microsomal CLint at 1 µM in series [3] (setting [9]) was less than 7.7 µL/min/mg. The “GeneTox AmesIIb Score” value in series [4] was determined as 1.
Take `CCc1nc2ncc(C)cn2c1C(=O)NCc1ccc(-c2nc3n(n2)CCC(OCCOC)C3)cc1` (stereo not shown) [Compound 30ab]: in series [1], the “Chemical stability data, Vehicle DMSO” value is 98%; the “Chemical stability data, Buffer pH2” value came to 98%; the “Chemical stability data, Buffer pH4” value is 98%; the “Chemical stability data, Buffer pH7” value was determined as 98%. For the same compound, in series [2], the MIC90 turned out to be 0.332 µM (≈ 0.163 µg/mL) and the IC50 was 109000 pM. This compound came in with a half-life at 1 µM in series [3] (setting [8]) of 2.55 h. Also, in series [3] (setting [9]), the microsomal CLint at 1 µM amounted to 9.08 µL/min/mg. For the same compound, the “GeneTox AmesIIb Score” value in series [4] came to 1.
For `CCc1nc2ncc(C)cn2c1C(=O)NCc1ccc(-c2nc3n(n2)CCCC3)cc1` [Compound 31ab], in series [1], the “Chemical stability data, Vehicle DMSO” value was found to be 100%; the “Chemical stability data, Buffer pH2” value was 100%; the “Chemical stability data, Buffer pH4” value is 100%; the “Chemical stability data, Buffer pH7” value came to 100%. Moreover, in series [2], the MIC90 was found to be 0.052 µM (≈ 0.0216 µg/mL) and the IC50 was 16000 pM. The half-life at 1 µM in series [3] (setting [8]) was more than 3 h. In addition, in series [3] (setting [9]), the microsomal CLint at 1 µM was less than 7.7 µL/min/mg. Further, in series [4], the “GeneTox AmesIIb Score” value is listed as 1.
For `CCc1nc2nc(C)ccn2c1C(=O)NCc1ccc(-c2cn3c(n2)CC(C(F)(F)F)CC3)cc1` (stereo not shown) [Compound 34ab], in series [1], the “Chemical stability data, Vehicle DMSO” value worked out at 94%; the “Chemical stability data, Buffer pH2” value was 94%; the “Chemical stability data, Buffer pH4” value amounted to 95%; the “Chemical stability data, Buffer pH7” value is 93%. In addition, in series [2], the MIC90 turned out to be 0.387 µM (≈ 0.187 µg/mL) and the IC50 was 94600 pM. The compound further yielded a half-life at 1 µM in series [3] (setting [8]) of more than 3 h. In addition, in series [3] (setting [9]), the microsomal CLint at 1 µM was less than 7.7 µL/min/mg. Further, in series [4], the “GeneTox AmesIIb Score” value is 1.
Take `CCc1nc2nc(F)ccn2c1C(=O)NCc1ccc(-c2cn3c(n2)CC(C)CC3)cc1` (stereo not shown) [Compound 35ab]: in series [1], the “Chemical stability data, Vehicle DMSO” value turned out to be 100%; the “Chemical stability data, Buffer pH2” value is reported as 100%; the “Chemical stability data, Buffer pH4” value was determined as 99%; the “Chemical stability data, Buffer pH7” value was determined as 98%. Moreover, in series [2], the MIC90 stood at 0.041 µM (≈ 0.0177 µg/mL) and the IC50 is 13400 pM. In series [3] (setting [8]), this compound had a half-life at 1 µM of 0.498 h. Also, in series [3] (setting [9]), the microsomal CLint at 1 µM was 46.4 µL/min/mg. In addition, in series [4], the “GeneTox AmesIIb Score” value was 1.
For the compound `CCc1nc2ccc(Cl)cn2c1C(=O)NCc1ccc(N2CCC(c3ccc(OC(F)(F)F)cc3)CC2)cc1` [Compound Q203], in series [5], the MIC50 is 0.00028 µM (≈ 0.000156 µg/mL). The “activity against MDR tuberculosis” value in the series on M. tuberculosis (MDR tuberculosis) was “activity against MDR tuberculosis”. Moreover, the “activity against replicating and non-replicating bacteria” value in the series with M. tuberculosis (replicating and non-replicating bacteria) is “highly active”.
